The results in this text go back to patent US20240058240A1, “COMPOUNDS AS SELF-TANNING SUBSTANCES AND TANNING COMPOSITIONS THEREOF” (CHEMCOM S.A., priority 2020, published 2024).

One test has as its target T1, OR7C1 (Homo sapiens, UniProt O76099).
T1 construct: transfected with a plasmid containing the CRE-luciferase and a plasmid containing the olfactory receptor; expressed in transfected cells; host or cells: HEK293T-RTP1A1/RTP2 (HEK293T stably expressing the chaperones RTP1A1 and RTP2)
T1 sequence (O76099 1-320): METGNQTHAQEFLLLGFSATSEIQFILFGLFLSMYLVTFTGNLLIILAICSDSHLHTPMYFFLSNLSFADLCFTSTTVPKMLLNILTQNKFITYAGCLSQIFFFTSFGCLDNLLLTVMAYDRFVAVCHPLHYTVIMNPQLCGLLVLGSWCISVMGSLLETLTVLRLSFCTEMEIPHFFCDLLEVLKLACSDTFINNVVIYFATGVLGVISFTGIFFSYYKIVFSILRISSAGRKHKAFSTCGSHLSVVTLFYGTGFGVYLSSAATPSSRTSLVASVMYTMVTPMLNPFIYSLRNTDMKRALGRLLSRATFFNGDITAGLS
Briefly: Luciferase-based CRE gene reporter assay, dose-response on OR7C1. The test is classed as cell-based. As to conditions: negative logarithm of the EC50 in Moles; semi-logarithmic dilutions from 1 mM to 316 nM on OR7C1. Here is the method:
HEK293T-RTP1A1/RTP2 cells were maintained in minimal essential medium (EMEM, Lonza) containing 10% fetal bovine serum (M10). These cells were generated by transfecting HEK293T (Thermofisher Scientific, cat ref: R70007) with an expression vector containing the sequences of the chaperone proteins RTP1A1 and RTP2 and a resistance gene to puromycin, using Lipofectamine 2000. The recombinant cell population, used in these experiments, was selected by adding 10 μg/ml of puromycin into the culture medium and subsequently subcloned (WO 2014/191047 A1).
Potential OR7C1 agonists were diluted at a concentration of 1 mole/liter (M) into an organic solvent such as Dimethyl Sulfoxide (DMSO) or Ethanol to generate stock solutions. […]
For concentration-response analysis, serial dilutions of the tested molecules were prepared from stock solutions in EMEM plated into 96-well plates.
For the dose-response analysis, a Luciferase-based gene reporter assay (Promega, Leiden, the Netherlands) was used. Briefly, cells were platted on poly-D-lysine-coated 96-well plates and transfected with a plasmid containing the CRE-luciferase and a plasmid containing the olfactory receptor. Sixteen hours after transfection, the culture medium was replaced by serum-free EMEM containing the tested compounds at a determined concentration. After four hours of incubation at 37° C., cells were lysed and processed for luminescence measurement. Luminescence emission was recorded. Results were expressed as luciferase activity ([…] (RLU)) or as percentage of the response induced by 10 μM of the adenylate cyclase activator Forskolin. An empty plasmid is used as negative control.
Dose-response analyses using the luciferase-based reporter assay were performed using semi-logarithmic serial dilutions of the compounds, from 1 mM to 316 nM, on OR7C1. 46 compounds were tested in concentration-response analyses. In each experiment, an empty vector (pEFIBRHO) was used as negative control. Values are given as the negative logarithm of the EC50 in Moles.
(In general: A reporter such as luciferase makes a cellular process visible.)

Test [1] concerns Normal Human Epidermal Melanocytes moderately pigmented (NHEMs-MP). The test can be described thus: Melanin content (pigmentation) of NHEMs-MP in culture. The test is classed as cell-based. As to conditions: 3.16 μM, 4 days, NHEMs-MP, in comparison with DOPA (50 μM). As for the experimental part:
This primary culture was cultivated in medium M254 supplemented (LIFE TECHNOLOGIES; ref:M-254-500) with HMGS (human melanocyte growth supplement; LIFE TECHNOLOGIES; ref: S-002-5) and gentamycin (LIFE TECHNOLOGIES; ref:15710-049) and maintained in a humidified incubator at 37° C. with a 5% CO2 atmosphere. For experiments (see below), cells were seeded at a density of 9×10^4 cells/well (100 μL/well) and cultured at 37° C. under a 5% CO2.
The NHEMs-MP were treated for 4 days, with a medium refresh after 2 days of treatment—Amberketal, Ambermax and with the reference molecule (L-DOPA)—when the culture media are collected and stored at −80° C. as shown in FIG. 2. At the end of the treatments, the culture media were collected a second time, pooled with the media collected at day 2 and centrifuged for 30 minutes (14000 rpm). The pellet obtained after centrifugation and NHEMs-MP treated cells were lysed in 150 μl of a NaOH 1M solution. 5 μl of each cell lysate were used for protein quantification using BCA protein assay. The remaining 145 μl of the lysates were heated at 80° C. during 1 h. The optical density was measured at 490 nm and the melanin content was determined by comparison with a standard curve of synthetic melanin and reported to the quantity of protein present in each cell well tested.
The effects of these 2 compounds, namely Ambermax and Amberketal, on the melanin production were evaluated as described above. Based on MTS results, moderately pigmented (MP) NHEMs were treated with these 2 compounds at one concentration (100 μM for Amberketal and 3.16 μM for Ambermax) for 4 days. In parallel, cell cultures were also treated with Ethanol 0.1%, a concentration corresponding to the test compounds solvent, and with a known modulator of pigmentation (L-DOPA 50 μM). […] At the end of the treatments (D4), cells were lysed, the melanin content was quantified by spectrophotometry and normalized to the amount of proteins. Extracellular melanin was also evaluated by the same methodology after centrifugation of the culture media.

For the substance Ambermax [Compound 16], the “-LogEC50 (average n > 3)” value on OR7C1 is on record as > 8. In addition, the “increase of melanin present in the media (extracellular)” value in test [1] (p<0.01, n=10) was “+123%”. In addition, in test [1] (p<0.01, n=12), the “increase of intracellular melanin content” value is “+46%”.
